US20250332266A1, “COMPOUNDS FOR THE DEGRADATION OF EGFR KINASE” (BeiGene Switzerland GmbH, priority 2022, published 2025)

Experiments:
[1] = target: EGFR Del19/T790M/C797S (H1975-clone #28) (Homo sapiens, UniProt P00533, T790M/C797S, form not given); experiment: EGFR degradation, HTRF total-EGFR assay, H1975-clone #28 (DTC); type: cell-based; settings: H1975-clone #28 Del19/T790M/C797S, 16 h treatment
Outline: (§1)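 H1975 clones with endogenous EGFR knocked out and homozygous exogenous EGFR mutants (#28 Del19/T790M/C797S; #25 L858R/T790M/C797S) treated 16 h at 37 °C, 8 doses, 5-fold from 10 μM, 0.2% DMSO. Total EGFR measured by HTRF on lysates, normalised to DMSO controls; DC50 and Dmax from curve fit.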

[2] = target: T1, EGFR L858R/T790M/C797S (H1975-clone #25) (Homo sapiens, UniProt P00533, C797S/L858R/T790M); experiment: EGFR degradation, HTRF total-EGFR assay, H1975-clone #25 (LTC); type: cell-based; settings: H1975-clone #25 L858R/T790M/C797S, 16 h treatment
T1 construct: expressed in transfected cells; host or cells: H1975 (clone #25), lentiviral transduction, endogenous EGFR knocked out
Outline: as §1

T1 sequence (P00533 25-1210 T790M/C797S/L858R): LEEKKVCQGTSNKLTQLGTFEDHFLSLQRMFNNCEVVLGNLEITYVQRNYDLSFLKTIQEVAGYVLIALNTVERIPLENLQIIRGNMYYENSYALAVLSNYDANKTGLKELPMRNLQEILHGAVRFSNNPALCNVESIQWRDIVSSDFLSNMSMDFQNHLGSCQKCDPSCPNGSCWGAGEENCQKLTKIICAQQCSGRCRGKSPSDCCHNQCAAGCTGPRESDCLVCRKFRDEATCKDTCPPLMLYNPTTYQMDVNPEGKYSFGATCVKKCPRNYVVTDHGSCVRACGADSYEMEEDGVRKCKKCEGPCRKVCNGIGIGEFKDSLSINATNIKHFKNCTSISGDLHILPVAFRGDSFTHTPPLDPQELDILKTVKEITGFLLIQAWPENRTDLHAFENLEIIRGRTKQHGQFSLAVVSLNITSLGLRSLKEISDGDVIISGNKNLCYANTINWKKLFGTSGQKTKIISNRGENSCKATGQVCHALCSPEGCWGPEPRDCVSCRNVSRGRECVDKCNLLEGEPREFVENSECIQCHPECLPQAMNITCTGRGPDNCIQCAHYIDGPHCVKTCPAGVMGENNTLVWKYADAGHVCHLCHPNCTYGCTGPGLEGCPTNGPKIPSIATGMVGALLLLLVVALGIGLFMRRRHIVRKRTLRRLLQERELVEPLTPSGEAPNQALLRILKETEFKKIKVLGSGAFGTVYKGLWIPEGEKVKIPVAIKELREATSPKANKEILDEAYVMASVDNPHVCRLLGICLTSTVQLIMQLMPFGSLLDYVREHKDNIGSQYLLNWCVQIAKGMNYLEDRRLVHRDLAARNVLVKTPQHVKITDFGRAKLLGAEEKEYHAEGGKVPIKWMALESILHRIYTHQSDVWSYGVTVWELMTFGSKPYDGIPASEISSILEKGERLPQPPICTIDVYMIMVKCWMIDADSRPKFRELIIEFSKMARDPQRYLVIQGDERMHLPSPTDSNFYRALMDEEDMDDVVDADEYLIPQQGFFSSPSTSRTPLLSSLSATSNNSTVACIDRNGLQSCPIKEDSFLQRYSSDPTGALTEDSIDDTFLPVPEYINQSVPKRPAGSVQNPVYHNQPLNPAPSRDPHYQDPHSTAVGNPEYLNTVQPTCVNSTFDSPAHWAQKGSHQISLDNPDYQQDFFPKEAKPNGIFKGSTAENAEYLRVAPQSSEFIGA
Chain of EGFR Del19/T790M/C797S (H1975-clone #28) (P00533 with tags, fused parts or gaps DEL746-750/T790M/C797S, form open): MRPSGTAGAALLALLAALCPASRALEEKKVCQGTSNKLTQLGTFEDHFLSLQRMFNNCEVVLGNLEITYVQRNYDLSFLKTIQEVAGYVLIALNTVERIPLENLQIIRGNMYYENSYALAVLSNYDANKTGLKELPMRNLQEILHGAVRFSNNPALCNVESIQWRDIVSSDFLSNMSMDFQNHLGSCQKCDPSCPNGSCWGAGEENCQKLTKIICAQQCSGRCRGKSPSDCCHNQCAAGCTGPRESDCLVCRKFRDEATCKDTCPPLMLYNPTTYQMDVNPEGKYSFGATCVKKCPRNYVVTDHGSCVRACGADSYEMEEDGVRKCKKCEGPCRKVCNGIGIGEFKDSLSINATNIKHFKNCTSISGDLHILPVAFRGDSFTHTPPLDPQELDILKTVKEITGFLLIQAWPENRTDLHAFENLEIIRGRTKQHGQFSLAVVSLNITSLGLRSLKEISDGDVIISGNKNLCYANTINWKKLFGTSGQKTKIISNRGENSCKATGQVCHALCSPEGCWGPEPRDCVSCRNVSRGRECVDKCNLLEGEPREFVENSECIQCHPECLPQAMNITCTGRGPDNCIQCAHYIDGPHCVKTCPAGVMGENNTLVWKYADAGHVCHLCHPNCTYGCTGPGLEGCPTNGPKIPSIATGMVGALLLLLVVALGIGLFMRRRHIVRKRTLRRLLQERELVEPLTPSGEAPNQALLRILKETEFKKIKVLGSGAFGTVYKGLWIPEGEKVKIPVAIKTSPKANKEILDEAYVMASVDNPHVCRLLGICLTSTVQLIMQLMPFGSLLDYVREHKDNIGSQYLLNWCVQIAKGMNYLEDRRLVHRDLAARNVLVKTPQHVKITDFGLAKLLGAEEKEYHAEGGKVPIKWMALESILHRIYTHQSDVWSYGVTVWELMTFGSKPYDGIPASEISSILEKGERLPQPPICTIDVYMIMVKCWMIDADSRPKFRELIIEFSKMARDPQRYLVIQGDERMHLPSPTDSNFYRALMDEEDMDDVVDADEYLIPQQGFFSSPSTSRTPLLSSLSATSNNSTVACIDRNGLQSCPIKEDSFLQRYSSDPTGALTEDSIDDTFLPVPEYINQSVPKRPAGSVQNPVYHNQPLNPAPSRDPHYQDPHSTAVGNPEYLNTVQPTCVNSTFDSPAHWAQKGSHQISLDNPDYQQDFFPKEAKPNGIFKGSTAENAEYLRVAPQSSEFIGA

For `Cc1cc2cc(n1)-c1cnn(C)c1OC[C@H]1C[C@@H](CN3/C(=N/C2=O)Nc2ccc(N4CCC(N5CCN(c6cnc(C7CCC(=O)NC7=O)cc6C)CC5)CC4)cc23)C1` (stereo partly shown) [Example 5, 3-(5-(4-(1-((7^1s,7^3s,E)-1^1,2^6-dimethyl-3-oxo-5^2,5^3-dihydro-1^1H,5^1H-9-oxa-4-aza-5(2,1)-benzo[d]imidazola-2(2,4)-pyridina-1(4,5)-pyrazola-7(1,3)-cyclobutanacyclononaphane-5^6-yl)piperidin-4-yl)piperazin-1-yl)-4-methylpyridin-2-yl)piperidine-2,6-dione], the “Degradation H1975 # 28 DTC” value [1] was 92.2 and the “Degradation H1975 # 25-LTC” value [2] was 92.9.
`COC[C@H]1CN(c2ccc3c(c2)N2C[C@H]4C[C@@H](COc5c(cnn5C)-c5cc(cc(C)n5)C(=O)/N=C/2N3)C4)CCN1C1CCN(c2ccc(C3CCC(=O)NC3=O)nc2C)CC1` (stereo partly drawn) [Example 24, 3-(5-(4-((R)-4-((7^1s,7^3S,E)-1^1,2^6-dimethyl-3-oxo-5^2,5^3-dihydro-1^1H,5^1H-9-oxa-4-aza-5(2,1)-benzo[d]imidazola-2(2,4)-pyridina-1(4,5)-pyrazola-7(1,3)-cyclobutanacyclononaphane-5^6-yl)-2-(methoxymethyl)piperazin-1-yl)piperidin-1-yl)-6-methylpyridin-2-yl)piperidine-2,6-dione] was tested, and the “Degradation H1975 # 28 DTC” value [1] was 88.0 and the “Degradation H1975 # 25-LTC” value [2] was 91.7.
In the case of `Cc1cc2cc(n1)-c1cnn(C)c1OC[C@H]1C[C@@H](CN3/C(=N/C2=O)Nc2ccc(N4CCN([C@@H]5CCN(c6cc(F)c([C@H]7CCC(=O)NC7=O)c(F)c6)C[C@@H]5F)CC4)cc23)C1` [Example 66, (R)-3-(4-((3S,4R)-4-(4-((7^1s,7^3S,E)-1^1,2^6-dimethyl-3-oxo-5^2,5^3-dihydro-1^1H,5^1H-9-oxa-4-aza-5(2,1)-benzo[d]imidazola-2(2,4)-pyridina-1(4,5)-pyrazola-7(1,3)-cyclobutanacyclononaphane-5^6-yl)piperazin-1-yl)-3-fluoropiperidin-1-yl)-2,6-difluorophenyl)piperidine-2,6-dione], the “Degradation H1975 # 28 DTC” value [1] is reported as 82.1 and the “Degradation H1975 # 25-LTC” value [2] is reported as 75.9.
In the case of `Cc1cc2cc(n1)-c1cnn(C)c1OC[C@H]1C[C@@H](CN3/C(=N/C2=O)Nc2ccc(N4CC5CCC4CN5C4CCN(c5ccc(C6CCC(=O)NC6=O)nc5C)CC4)cc23)C1` (stereo partly shown) [Example 126, 3-(5-(4-(5-((7^1s,7^3s,E)-1^1,2^6-dimethyl-3-oxo-5^2,5^3-dihydro-1^1H,5^1H-9-oxa-4-aza-5(2,1)-benzo[d]imidazola-2(2,4)-pyridina-1(4,5)-pyrazola-7(1,3)-cyclobutanacyclononaphane-5^6-yl)-2,5-diazabicyclo[2.2.2]octan-2-yl)piperidin-1-yl)-6-methylpyridin-2-yl)piperidine-2,6-dione], the “Degradation H1975 # 28 DTC” value [1] is reported as 80.5 and the “Degradation H1975 # 25-LTC” value [2] is reported as 85.9.
For `Cc1cc2cc(n1)-c1cnn(C)c1OC[C@H]1C[C@@H](CN3/C(=N/C2=O)Nc2ccc(N4CCN(CCNc5cc(F)c([C@H]6CCC(=O)NC6=O)c(F)c5)CC4)cc23)C1` (single isomer, unassigned) [Example 14], the “Degradation H1975 # 28 DTC” value [1] was 77.1 and the “Degradation H1975 # 25-LTC” value [2] was 83.9.
`Cc1cc2cc(n1)-c1cnn(C)c1OC[C@H]1C[C@@H](CN3/C(=N/C2=O)Nc2ccc(N4CCN(C5CCN(c6cnc(C7CCC(=O)NC7=O)c(F)c6)CC5)CC4)cc23)C1` (single isomer, unassigned) [Example 38, 3-(5-(4-(4-((7^1s,7^3s,E)-1^1,2^6-dimethyl-3-oxo-5^2,5^3-dihydro-1^1H,5^1H-9-oxa-4-aza-5(2,1)-benzo[d]imidazola-2(2,4)-pyridina-1(4,5)-pyrazola-7(1,3)-cyclobutanacyclononaphane-5^6-yl)piperazin-1-yl)piperdine-1-yl)-3-fluoropyridin-2-yl)piperidine 6-dione] was tested, and the “Degradation H1975 # 28 DTC” value [1] was 78.4 and the “Degradation H1975 # 25-LTC” value [2] was 81.4.
In the case of `Cc1cc2cc(n1)-c1cnn(C)c1OC[C@H]1C[C@@H](CN3/C(=N/C2=O)Nc2ccc(N4CCN(C5CCN(c6cnc([C@H]7CCC(=O)NC7=O)cc6C)CC5)C[C@@H]4C)cc23)C1` [Example 32, 3-(5-(4-((S)-4-((7^1s,7^3R,E)-1^1,2^6-dimethyl-3-oxo-5^1,5^3-dihydro-1^1H,5^1H-9-oxa-4-aza-5(2,1)-benzo[d]imidazola-2(2,4)-pyridina-1(4,5)-pyrazola-7(1,3)-cyclobutanacyclononaphane-5^6-yl)-3-methylpiperazin-1-yl)piperidin-1-yl)-4-methylpyridin-2-yl)piperidine-2,6-dione], the “Degradation H1975 # 28 DTC” value [1] is reported as 88.8 and the “Degradation H1975 # 25-LTC” value [2] is reported as 88.8.
`Cc1cc2cc(n1)-c1cnn(C)c1OC[C@H]1C[C@@H](CN3/C(=N/C2=O)Nc2ccc(N4CCN([C@@H]5CCN(c6ccc(C7CCC(=O)NC7=O)nc6C)C[C@H]5F)CC4)cc23)C1` (stereo partly drawn) [Example 57, 3-(5-((3R,4R)-4-(4-((7^1s,7^3S,E)-1^1,2^6-dimethyl-3-oxo-5^2,5^3-dihydro-1^1H,5^1H-9-oxa-4-aza-5(2,1)-benzo[d]imidazola-2(2,4)-pyridina-1(4,5)-pyrazola-7(1,3)-cyclobutanacyclononaphane-5^6-yl)piperazin-1-yl)-3-fluoropiperidin-1-yl)-6-methylpyridin-2-yl)piperidine-2,6-dione] was tested, and the “Degradation H1975 # 28 DTC” value [1] was 87.5 and the “Degradation H1975 # 25-LTC” value [2] was 89.9.
`Cc1cc2cc(n1)-c1cnn(C)c1OC[C@H]1C[C@@H](CN3/C(=N/C2=O)Nc2ccc(N4CCN(C5CCN(c6ccc(C7CCC(=O)NC7=O)nc6)CC5)C[C@@H]4C)cc23)C1` (stereo partly drawn) [Example 36, 3-(5-(4-((S)-4-((7^1s,7^3R,E)-1^1,2^6-dimethyl-3-oxo-5^2,5^3-dihydro-1^1H,5^1H-9-oxa-4-aza-5(2,1)-benzo[d]imidazola-2(2,4)-pyridina-1(4,5)-pyrazola-7(1,3)-cyclobutanacyclononaphane-5^6-yl)-3-methylpiperazin-1-yl)piperidin-1-yl)pyridin-2-yl)piperidine-2,6-dione] was tested, and the “Degradation H1975 # 28 DTC” value [1] was 78.0 and the “Degradation H1975 # 25-LTC” value [2] was 87.7.
In the case of `Cc1cc2cc(n1)-c1cnn(C)c1OC[C@H]1C[C@@H](CN3/C(=N/C2=O)Nc2ccc(N4CCN(C5CCN(c6ccc(C7CCC(=O)NC7=O)nc6)CC5)CC4)cc23)C1` (stereo partly shown) [Example 15, 3-(5-(4-(4-((7^1s,7^3s,E)-1^1,2^6-dimethyl-3-oxo-5^2,5^3-dihydro-1^1H,5^1H-9-oxa-4-aza-5(2,1)-benzo[d]imidazola-2(2,4)-pyridina-1(4,5)-pyrazola-7(1,3)-cyclobutanacyclononaphane-5^6-yl)piperazin-1-yl)piperidin-1-yl)pyridin-2-yl)piperidine-2,6-dione], the “Degradation H1975 # 28 DTC” value [1] is reported as 76.0 and the “Degradation H1975 # 25-LTC” value [2] is reported as 87.3.
For `Cc1cc2cc(n1)-c1cnn(C)c1OC[C@H]1C[C@@H](CN3/C(=N/C2=O)Nc2ccc(N4C5CCC4CN(C4CCN(c6cc(F)c([C@H]7CCC(=O)NC7=O)c(F)c6)CC4)C5)cc23)C1` [Example 128, (3R)-3-(4-(4-(8-((7^1s,7^3s,E)-1^1,2^6-dimethyl-3-oxo-5^2,5^3-dihydro-1^1H,5^1H-9-oxa-4-aza-5(2,1)-benzo[d]imidazola-2(2,4)-pyridina-1(4,5)-pyrazola-7(1,3)-cyclobutanacyclononaphane-5^6-yl)-3,8-diazabicyclo[3.2.1]octan-3-yl)piperidin-1-yl)-2,6-difluorophenyl)piperidine-2,6-dione], the “Degradation H1975 # 28 DTC” value [1] was 75.7 and the “Degradation H1975 # 25-LTC” value [2] was 73.7.
In the case of `Cc1cc2cc(n1)-c1cnn(C)c1OC[C@H]1C[C@@H](CN3/C(=N/C2=O)Nc2ccc(CN4CCN(C(=O)C5CN(c6cc(F)c([C@H]7CCC(=O)NC7=O)c(F)c6)CC5(C)C)CC4)cc23)C1` (stereo partly drawn) [Example 4, (R)-3-(4-((S)-4-(4-(((7^1s,7^3R,E)-1^1,2^6-dimethyl-3-oxo-5^2,5^3-dihydro-1^1H,5^1H-9-oxa-4-aza-5(2,1)-benzo[d]imidazola-2(2,4)-pyridina-1(4,5)-pyrazola-7(1,3)-cyclobutanacyclononaphane-5^6-yl)methyl)piperazine-1-carbonyl)-3,3-dimethylpyrrolidin-1-yl)-2,6-difluorophenyl)piperidine-2,6-dione], the “Degradation H1975 # 28 DTC” value [1] is reported as 84.6 and the “Degradation H1975 # 25-LTC” value [2] is reported as 86.6.
In the case of `Cc1cc2cc(n1)-c1cnn(C)c1OC[C@H]1C[C@@H](CN3/C(=N/C2=O)Nc2ccc(N4CCC(N5CCN(c6cnc(C7CCC(=O)NC7=O)cc6C)C[C@@H]5C)CC4)cc23)C1` (stereo partly drawn) [Example 110, 3-(5-((S)-4-(1-((7^1s,7^3R,E)-1^1,2^6-dimethyl-3-oxo-5^2,5^3-dihydro-1^1H,5^1H-9-oxa-4-aza-5(2,1)-benzo[d]imidazola-2(2,4)-pyridina-1(4,5)-pyrazola-7(1,3)-cyclobutanacyclononaphane-5^6-yl)piperidin-4-yl)-3-methylpiperazin-1-yl)-4-methylpyridin-2-yl)piperidine-2,6-dione], the “Degradation H1975 # 28 DTC” value [1] is reported as 82.2 and the “Degradation H1975 # 25-LTC” value [2] is reported as 90.3.
For `Cc1cc2cc(n1)-c1cnn(C)c1OC[C@H]1C[C@@H](CN3/C(=N/C2=O)Nc2ccc(N4CCN([C@@H]5CCN(c6ccc(C7CCC(=O)NC7=O)nc6C)C[C@@H]5F)CC4)cc23)C1` (stereo partly drawn) [Example 62, 3-(5-((3S,4R)-4-(4-((7^1s,7^3S,E)-1^1,2^6-dimethyl-3-oxo-5^2,5^3-dihydro-1^1H,5^1H-9-oxa-4-aza-5(2,1)-benzo[d]imidazola-2(2,4)-pyridina-1(4,5)-pyrazola-7(1,3)-cyclobutanacyclononaphane-5^6-yl)piperazin-1-yl)-3-fluoropiperidin-1-yl)-6-methylpyridin-2-yl)piperidine-2,6-dione], the “Degradation H1975 # 28 DTC” value [1] was 89.1 and the “Degradation H1975 # 25-LTC” value [2] was 91.5.
